Laboratory results: US9382245B2, “Compounds and methods for treating HIV infections” (priority 2013, dated 2016)
Like-named read-outs stand apart in the source and are kept apart here.

Legend:
[1] = system: human MT-2 T-cells; details: human
[2] = in vitro; details: human
[3] = Aqueous solubility, shake-flask procedure; type: physicochemical; details: Britton-Robinson buffer, 25 °C, pH 6.5, aqueous buffer, thermodynamic from solid
Description: Poor solubility, which has been a problem for many NNRTIs, often leads too low bioavailability, difficulties in formulation, and high dosages.^6,32,33 The issue reflects the hydrophobic nature of the NNRTI binding site. In the design of the catechol diethers, attention was paid to having both good potency and aqueous solubility. In our laboratory, solubilities are measured using a shake-flask procedure.^6,34 The compounds are dissolved in Britton-Robinson buffer and stirred in vials for 48 hours at 25° C. The pH of the buffer solutions is 6.5 as measured by a Corning General Purpose pH Combination probe (4136L21).

SMILES	CC50 [1] [µM]	CC50 [2] [µM]	also measured
N#Cc1ccc2c(Oc3ccc(Cl)cc3OCCn3ccc(=O)[nH]c3=O)cc(Cl)cc2c1 [14h, 7-chloro-5-(4-chloro-2-(2-(2,4-dioxo-3,4-dihydropyrimidin-1(2H)-yl)ethoxy)phenoxy)-2-naphthonitrile]	20	–	–
Cc1ccc2c(Oc3ccccc3OCCn3ccc(=O)[nH]c3=O)cccc2c1 [14b, 1-(2-(2-((6-methylnaphthalen-1-yl)oxy)phenoxy)ethyl)pyrimidine-2,4(1H,3H)-dione]	40	–	–
Cc1cc2c(Oc3ccc(Cl)cc3OCCn3ccc(=O)[nH]c3=O)cccc2o1 [12g, 1-(2-(5-chloro-2-((2-methylbenzofuran-4-yl)oxy)phenoxy)ethyl)pyrimidine-2,4(1H,3H)-dione]	–	8	–
N#Cc1ccc2c(Oc3ccc(F)cc3OCCn3ccc(=O)[nH]c3=O)cc(F)cc2c1 [14l, 5-(2-(2-(2,4-dioxo-3,4-dihydropyrimidin-1(2H)-yl)ethoxy)-4-fluorophenoxy)-7-fluoro-2-naphthonitrile]	> 100	> 100	–
N#Cc1cc2c(Oc3ccccc3OCCn3ccc(=O)[nH]c3=O)cc(F)cn2c1 [10d, 8-(2-(2-(2,4-dioxo-3,4-dihydropyrimidin-1(2H)-yl)ethoxy)phenoxy)-6-fluoroindolizine-2-carbonitrile]	40	–	–
N#Cc1cc2c(Oc3ccc(Cl)cc3OCCn3ccc(=O)[nH]c3=O)cccc2o1 [12h, 4-(4-chloro-2-(2-(2,4-dioxo-3,4-dihydropyrimidin-1(2H)-yl)ethoxy)phenoxy)benzofuran-2-carbonitrile]	–	7	–
O=c1ccn(CCOc2ccccc2Oc2cccc3cc(Cl)ccc23)c(=O)[nH]1 [14c, 1-(2-(2-((6-chloronaphthalen-1-yl)oxy)phenoxy)ethyl)pyrimidine-2,4(1H,3H)-dione]	> 100	–	–
N#Cc1cc2c(Oc3cc(F)ccc3OCCn3ccc(=O)[nH]c3=O)cccn2c1 [10j, 8-(2-(2-(2,4-dioxo-3,4-dihydropyrimidin-1(2H)-yl)ethoxy)-5-fluorophenoxy)indolizine-2-carbonitrile]	–	35	–
Cc1cc(Oc2ccccc2OCCn2ccc(=O)[nH]c2=O)c2cc(C#N)cn2c1 [10c, 8-(2-(2-(2,4-dioxo-3,4-dihydropyrimidin-1(2H)-yl)ethoxy)phenoxy)-6-methylindolizine-2-carbonitrile]	–	3	–
Cc1cc(Oc2ccccc2OCCn2ccc(=O)[nH]c2=O)c2cc(C#N)oc2c1 [12b, 4-(2-(2-(2,4-dioxo-3,4-dihydropyrimidin-1(2H)-yl)ethoxy)phenoxy)-6-methylbenzofuran-2-carbonitrile]	–	> 100	–
Cc1cc(Oc2ccccc2OCCn2ccc(=O)[nH]c2=O)c2cc(C#N)[nH]c2c1 [8e, 4-(2-(2-(2,4-dioxo-3,4-dihydropyrimidin-1(2H)-yl)ethoxy)phenoxy)-6-methyl-1H-indole-2-carbonitrile]	–	1.2	–
N#Cc1cc2c(Oc3cc(F)c(F)cc3OCCn3ccc(=O)[nH]c3=O)cccn2c1 [10k, 8-(2-(2-(2,4-dioxo-3,4-dihydropyrimidin-1(2H)-yl)ethoxy)-4,5-difluorophenoxy)indolizine-2-carbonitrile]	–	19	–
N#Cc1cc2c(Oc3ccc(F)cc3OCCn3ccc(=O)[nH]c3=O)cc(Cl)cn2c1 [10i, 6-chloro-8-(2-(2-(2,4-dioxo-3,4-dihydropyrimidin-1(2H)-yl)ethoxy)-4-fluorophenoxy)indolizine-2-carbonitrile]	15	–	–
O=c1ccn(CCOc2ccccc2Oc2cccc3[nH]ccc23)c(=O)[nH]1 [8a, 1-(2-(2-((1H-indol-4-yl)oxy)phenoxy)ethyl)pyrimidine-2,4(1H,3H)-dione]	–	53	–
N#Cc1ccc2c(Oc3ccccc3OCCn3ccc(=O)[nH]c3=O)cc(F)cc2c1 [14k, 5-(2-(2-(2,4-dioxo-3,4-dihydropyrimidin-1(2H)-yl)ethoxy)phenoxy)-7-fluoro-2-naphthonitrile]	> 100	> 100	–
O=c1ccn(CCOc2cc(Cl)ccc2Oc2cccc3occc23)c(=O)[nH]1 [12f, 1-(2-(2-(benzofuran-4-yloxy)-5-chlorophenoxy)ethyl)pyrimidine-2,4(1H,3H)-dione]	–	19	–
N#Cc1cc2c(Oc3ccccc3OCCn3ccc(=O)[nH]c3=O)cccn2c1 [10b, 8-(2-(2-(2,4-dioxo-3,4-dihydropyrimidin-1(2H)-yl)ethoxy)phenoxy)indolizine-2-carbonitrile]	> 100	> 100	–
N#Cc1cc2c(Oc3cc(F)c(F)cc3OCCn3ccc(=O)[nH]c3=O)cc(F)cn2c1 [10l, 8-(2-(2-(2,4-dioxo-3,4-dihydropyrimidin-1(2H)-yl)ethoxy)-4,5-difluorophenoxy)-6-fluoroindolizine-2-carbonitrile]	–	54	–
Cc1cc(Oc2ccc(F)cc2OCCn2ccc(=O)[nH]c2=O)c2cc(C#N)oc2c1 [12e, 4-(2-(2-(2,4-dioxo-3,4-dihydropyrimidin-1(2H)-yl)ethoxy)-4-fluorophenoxy)-6-methylbenzofuran-2-carbonitrile]	–	> 100	–

SMILES	CC50 [1] [µM]	CC50 [2] [µM]	also measured
N#Cc1cc2c(Oc3ccccc3OCCn3ccc(=O)[nH]c3=O)cc(Cl)cc2[nH]1 [8f, 6-chloro-4-(2-(2-(2,4-dioxo-3,4-dihydropyrimidin-1(2H)-yl)ethoxy)phenoxy)-1H-indole-2-carbonitrile]	–	81	–
O=c1ccn(CCOc2ccccc2Oc2cc(Cl)cc3cc(Cl)ccc23)c(=O)[nH]1 [14d, 1-(2-(2-((3,6-dichloronaphthalen-1-yl)oxy)phenoxy)ethyl)pyrimidine-2,4(1H,3H)-dione]	45	–	–
N#Cc1cc2c(Oc3ccc(Cl)cc3OCCn3ccc(=O)[nH]c3=O)cc(Cl)cn2c1 [10n, 6-chloro-8-(4-chloro-2-(2-(2,4-dioxo-3,4-dihydropyrimidin-1(2H)-yl)ethoxy)phenoxy)indolizine-2-carbonitrile]	–	20	–
N#Cc1cc2c(Oc3ccc(Cl)cc3OCCn3ccc(=O)[nH]c3=O)cccn2c1 [10m, 8-(4-chloro-2-(2-(2,4-dioxo-3,4-dihydropyrimidin-1(2H)-yl)ethoxy)phenoxy)indolizine-2-carbonitrile]	–	55	–
N#Cc1ccc2c(Oc3ccc(F)cc3OCCn3ccc(=O)[nH]c3=O)cc(Cl)cc2c1 [14g, 7-chloro-5-(2-(2-(2,4-dioxo-3,4-dihydropyrimidin-1(2H)-yl)ethoxy)-4-fluorophenoxy)-2-naphthonitrile]	16	–	–
N#Cc1cc2c(Oc3ccccc3OCCn3ccc(=O)[nH]c3=O)cccc2o1 [12a, 4-(2-(2-(2,4-dioxo-3,4-dihydropyrimidin-1(2H)-yl)ethoxy)phenoxy)benzofuran-2-carbonitrile]	> 100	> 100	–
N#Cc1ccc2c(Oc3ccc(Cl)cc3OCCn3ccc(=O)[nH]c3=O)cc(F)cc2c1 [14m, 5-(4-chloro-2-(2-(2,4-dioxo-3,4-dihydropyrimidin-1(2H)-yl)ethoxy)phenoxy)-7-fluoro-2-naphthonitrile]	18	–	–
N#Cc1cc2c(Oc3ccc(F)cc3OCCn3ccc(=O)[nH]c3=O)cccc2o1 [12d, 4-(2-(2-(2,4-dioxo-3,4-dihydropyrimidin-1(2H)-yl)ethoxy)-4-fluorophenoxy)benzofuran-2-carbonitrile]	> 100	> 100	–
Cc1cc2c(Oc3ccccc3OCCn3ccc(=O)[nH]c3=O)cccc2[nH]1 [8c, 1-(2-(2-((2-methyl-1H-indol-4-yl)oxy)phenoxy)ethyl)pyrimidine-2,4(1H,3H)-dione]	–	15	–
Cc1cc2c(Oc3ccccc3OCCn3ccc(=O)[nH]c3=O)cccn2c1 [10a, 1-(2-(2-((2-methylindolizin-8-yl)oxy)phenoxy)ethyl)pyrimidine-2,4(1H,3H)-dione]	–	9	–
N#Cc1cc2c(Oc3ccccc3OCCn3ccc(=O)[nH]c3=O)cc(Cl)cc2o1 [12c, 6-chloro-4-(2-(2-(2,4-dioxo-3,4-dihydropyrimidin-1(2H)-yl)ethoxy)phenoxy)benzofuran-2-carbonitrile]	> 100	> 100	–
N#C/C=C/c1cc(Cl)cc(Oc2ccccc2OCCn2ccc(=O)[nH]c2=O)c1 [1c, (E)-3-(3-chloro-5-(2-(2-(2,4-dioxo-3,4-dihydropyrimidin-1(2H)-yl)ethoxy)phenoxy)phenyl)acrylonitrile]	18	–	solubility at 48 h ([3]; Table 2, pH 6.5, Britton-Robinson buffer, 48 hours at 25° C., read-out: S, aqueous solubility): 0.51 mg/mL; solubility at 48 h ([3]; shake-flask, pH 6.5, read-out: aqueous solubility): 0.51 mg/mL
N#Cc1cc2c(Oc3ccccc3OCCn3ccc(=O)[nH]c3=O)cccc2[nH]1 [8d, 4-(2-(2-(2,4-dioxo-3,4-dihydropyrimidin-1(2H)-yl)ethoxy)phenoxy)-1H-indole-2-carbonitrile]	–	72	–
N#Cc1ccc2c(Oc3ccc(F)cc3OCCn3ccc(=O)[nH]c3=O)cccc2c1 [14i, 5-(2-(2-(2,4-dioxo-3,4-dihydropyrimidin-1(2H)-yl)ethoxy)-4-fluorophenoxy)-2-naphthonitrile]	> 100	> 100	–
N#Cc1ccc2c(Oc3ccccc3OCCn3ccc(=O)[nH]c3=O)cc(Cl)cc2c1 [14f, 7-chloro-5-(2-(2-(2,4-dioxo-3,4-dihydropyrimidin-1(2H)-yl)ethoxy)phenoxy)-2-naphthonitrile]	24	–	–
O=c1ccn(CCOc2cc(Cl)ccc2Oc2cccc3ccoc23)c(=O)[nH]1 [13a, 1-(2-(2-(benzofuran-7-yloxy)-5-chlorophenoxy)ethyl)pyrimidine-2,4(1H,3H)-dione]	–	50	–
O=c1ccn(CCOc2cc(Cl)ccc2Oc2cccc3[nH]ccc23)c(=O)[nH]1 [8b, 1-(2-(2-((1H-indol-4-yl)oxy)-5-chlorophenoxy)ethyl)pyrimidine-2,4(1H,3H)-dione]	–	18	–
N#Cc1ccc2c(Oc3ccc(Cl)cc3OCCn3ccc(=O)[nH]c3=O)cccc2c1 [14j, 5-(4-chloro-2-(2-(2,4-dioxo-3,4-dihydropyrimidin-1(2H)-yl)ethoxy)phenoxy)-2-naphthonitrile]	> 100	–	–
